Measurements taken from patent US12479847B2 (DANA-FARBER CANCER INSTITUTE, INC., priority 2019, dated 2025).

How the values were obtained:
Experiment in all cases: KINOMEscan (ScanMAX) kinase profiling
Format in all cases: binding
panel of 468 kinases [1] = molecular target: T1, panel of 468 kinases (Homo sapiens, UniProt P42336, H1047L); settings: PIK3CA(H1047L); 1 μM; read-out: % control
T1 construct: purchased KINOMEscan (ScanMAX) service

panel of 468 kinases [2] = molecular target: T2, panel of 468 kinases (Homo sapiens, UniProt P48729); settings: CSNK1A1; 1 μM; read-out: % control
T2 construct: purchased KINOMEscan (ScanMAX) service

panel of 468 kinases [3] = molecular target: T3, panel of 468 kinases (Homo sapiens, UniProt P52333); settings: JAK3(JH1domain-catalytic); 1 μM; read-out: % control
T3 construct: purchased KINOMEscan (ScanMAX) service
T3 sequence (P52333 1-1124): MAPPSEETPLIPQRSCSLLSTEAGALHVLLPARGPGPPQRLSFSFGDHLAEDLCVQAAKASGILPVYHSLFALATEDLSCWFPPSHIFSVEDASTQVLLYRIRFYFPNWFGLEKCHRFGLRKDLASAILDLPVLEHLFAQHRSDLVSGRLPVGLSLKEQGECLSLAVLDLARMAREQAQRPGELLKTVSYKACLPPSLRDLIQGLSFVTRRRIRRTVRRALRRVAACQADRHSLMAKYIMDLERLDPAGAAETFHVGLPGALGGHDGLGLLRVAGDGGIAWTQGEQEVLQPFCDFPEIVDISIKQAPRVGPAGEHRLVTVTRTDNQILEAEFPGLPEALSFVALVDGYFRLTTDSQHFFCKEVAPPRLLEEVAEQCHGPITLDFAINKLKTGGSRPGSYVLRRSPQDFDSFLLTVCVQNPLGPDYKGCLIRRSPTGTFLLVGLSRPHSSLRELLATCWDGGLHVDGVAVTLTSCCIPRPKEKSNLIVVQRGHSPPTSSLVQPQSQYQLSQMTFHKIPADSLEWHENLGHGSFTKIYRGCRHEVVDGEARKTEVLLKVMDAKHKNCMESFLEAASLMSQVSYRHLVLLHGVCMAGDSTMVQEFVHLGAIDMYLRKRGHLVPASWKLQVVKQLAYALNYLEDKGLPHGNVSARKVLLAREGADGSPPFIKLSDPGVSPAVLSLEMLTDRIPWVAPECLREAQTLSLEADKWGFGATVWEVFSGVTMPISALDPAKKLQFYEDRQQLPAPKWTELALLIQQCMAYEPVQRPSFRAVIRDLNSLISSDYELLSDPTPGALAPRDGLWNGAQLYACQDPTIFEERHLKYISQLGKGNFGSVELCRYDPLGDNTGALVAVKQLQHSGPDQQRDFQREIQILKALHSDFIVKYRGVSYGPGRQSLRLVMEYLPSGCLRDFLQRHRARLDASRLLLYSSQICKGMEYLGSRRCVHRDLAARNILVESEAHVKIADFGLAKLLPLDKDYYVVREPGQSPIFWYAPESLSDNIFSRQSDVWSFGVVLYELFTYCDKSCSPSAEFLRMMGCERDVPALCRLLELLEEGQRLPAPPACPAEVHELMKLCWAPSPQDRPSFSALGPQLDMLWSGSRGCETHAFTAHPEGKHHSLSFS

panel of 468 kinases [4] = molecular target: T4, panel of 468 kinases (Homo sapiens, UniProt Q00537); settings: PCTK2; 1 μM; read-out: % control
T4 construct: purchased KINOMEscan (ScanMAX) service

panel of 468 kinases [5] = molecular target: T5, panel of 468 kinases (Homo sapiens, UniProt Q02763); settings: TIE2; 1 μM; read-out: % control
T5 construct: purchased KINOMEscan (ScanMAX) service

panel of 468 kinases [6] = molecular target: T6, panel of 468 kinases (Homo sapiens, UniProt Q15759); settings: p38-beta; 1 μM; read-out: % control
T6 construct: purchased KINOMEscan (ScanMAX) service

panel of 468 kinases [7] = molecular target: T7, panel of 468 kinases (Homo sapiens, UniProt Q16659); settings: ERK3; 1 μM; read-out: % control
T7 construct: purchased KINOMEscan (ScanMAX) service

panel of 468 kinases [8] = molecular target: T8, panel of 468 kinases (Homo sapiens, UniProt Q8NFD2); settings: ANKK1; 1 μM; read-out: % control
T8 construct: purchased KINOMEscan (ScanMAX) service
T8 sequence (Q8NFD2 1-765): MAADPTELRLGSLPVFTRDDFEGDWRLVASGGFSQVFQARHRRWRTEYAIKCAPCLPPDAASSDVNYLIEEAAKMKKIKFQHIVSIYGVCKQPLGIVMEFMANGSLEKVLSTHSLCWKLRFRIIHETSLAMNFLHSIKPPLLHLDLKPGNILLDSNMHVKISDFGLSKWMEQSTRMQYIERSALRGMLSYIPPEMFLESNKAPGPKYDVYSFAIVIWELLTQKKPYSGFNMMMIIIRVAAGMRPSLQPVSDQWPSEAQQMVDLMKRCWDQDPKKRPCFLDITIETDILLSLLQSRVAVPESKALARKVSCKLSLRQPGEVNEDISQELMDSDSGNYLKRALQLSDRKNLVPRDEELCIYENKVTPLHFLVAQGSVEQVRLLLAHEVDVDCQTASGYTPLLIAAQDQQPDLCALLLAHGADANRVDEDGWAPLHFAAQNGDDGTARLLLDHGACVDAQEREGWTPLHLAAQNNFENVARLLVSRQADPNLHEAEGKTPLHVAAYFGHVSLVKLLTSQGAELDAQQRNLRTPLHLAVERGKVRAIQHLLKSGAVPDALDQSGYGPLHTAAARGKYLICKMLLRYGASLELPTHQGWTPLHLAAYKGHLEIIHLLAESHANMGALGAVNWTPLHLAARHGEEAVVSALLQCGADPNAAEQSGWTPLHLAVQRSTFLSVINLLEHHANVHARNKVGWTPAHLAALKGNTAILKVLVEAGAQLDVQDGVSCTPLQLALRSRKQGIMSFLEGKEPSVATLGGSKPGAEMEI

panel of 468 kinases [9] = molecular target: T9, panel of 468 kinases (Homo sapiens, UniProt Q9BQI3); settings: EIF2AK1; 1 μM; read-out: % control
T9 construct: purchased KINOMEscan (ScanMAX) service

panel of 468 kinases [10] = molecular target: T10, panel of 468 kinases (Homo sapiens, UniProt Q9Y2H1); settings: NDR2; 1 μM; read-out: % control
T10 construct: purchased KINOMEscan (ScanMAX) service
T10 sequence (Q9Y2H1 whole entry): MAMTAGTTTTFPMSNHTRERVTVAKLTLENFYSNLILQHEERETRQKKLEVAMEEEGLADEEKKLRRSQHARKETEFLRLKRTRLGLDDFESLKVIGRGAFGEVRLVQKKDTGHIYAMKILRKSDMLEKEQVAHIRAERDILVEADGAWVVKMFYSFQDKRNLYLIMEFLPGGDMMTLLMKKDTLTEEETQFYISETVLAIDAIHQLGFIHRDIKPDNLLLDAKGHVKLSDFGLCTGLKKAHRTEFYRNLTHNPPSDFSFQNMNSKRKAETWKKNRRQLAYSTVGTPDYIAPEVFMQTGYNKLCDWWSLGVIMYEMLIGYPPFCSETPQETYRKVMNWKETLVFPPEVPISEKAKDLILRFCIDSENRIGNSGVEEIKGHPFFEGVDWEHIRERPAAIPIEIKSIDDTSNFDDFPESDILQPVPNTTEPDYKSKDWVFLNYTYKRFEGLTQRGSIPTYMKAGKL

T4 sequence (Q00537 whole entry): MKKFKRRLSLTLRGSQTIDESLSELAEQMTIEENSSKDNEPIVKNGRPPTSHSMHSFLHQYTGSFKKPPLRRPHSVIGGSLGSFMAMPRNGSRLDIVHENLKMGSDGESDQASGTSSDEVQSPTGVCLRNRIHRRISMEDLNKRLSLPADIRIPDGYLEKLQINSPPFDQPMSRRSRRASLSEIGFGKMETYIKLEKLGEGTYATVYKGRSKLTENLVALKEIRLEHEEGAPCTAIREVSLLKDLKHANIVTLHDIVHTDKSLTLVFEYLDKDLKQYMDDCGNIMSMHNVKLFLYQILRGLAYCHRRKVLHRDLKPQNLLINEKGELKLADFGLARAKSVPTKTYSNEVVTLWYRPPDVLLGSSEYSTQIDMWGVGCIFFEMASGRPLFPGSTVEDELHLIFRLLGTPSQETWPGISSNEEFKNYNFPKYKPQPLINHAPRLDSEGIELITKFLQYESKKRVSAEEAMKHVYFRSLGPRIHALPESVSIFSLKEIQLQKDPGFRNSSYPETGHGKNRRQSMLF
T7 sequence (Q16659 whole entry): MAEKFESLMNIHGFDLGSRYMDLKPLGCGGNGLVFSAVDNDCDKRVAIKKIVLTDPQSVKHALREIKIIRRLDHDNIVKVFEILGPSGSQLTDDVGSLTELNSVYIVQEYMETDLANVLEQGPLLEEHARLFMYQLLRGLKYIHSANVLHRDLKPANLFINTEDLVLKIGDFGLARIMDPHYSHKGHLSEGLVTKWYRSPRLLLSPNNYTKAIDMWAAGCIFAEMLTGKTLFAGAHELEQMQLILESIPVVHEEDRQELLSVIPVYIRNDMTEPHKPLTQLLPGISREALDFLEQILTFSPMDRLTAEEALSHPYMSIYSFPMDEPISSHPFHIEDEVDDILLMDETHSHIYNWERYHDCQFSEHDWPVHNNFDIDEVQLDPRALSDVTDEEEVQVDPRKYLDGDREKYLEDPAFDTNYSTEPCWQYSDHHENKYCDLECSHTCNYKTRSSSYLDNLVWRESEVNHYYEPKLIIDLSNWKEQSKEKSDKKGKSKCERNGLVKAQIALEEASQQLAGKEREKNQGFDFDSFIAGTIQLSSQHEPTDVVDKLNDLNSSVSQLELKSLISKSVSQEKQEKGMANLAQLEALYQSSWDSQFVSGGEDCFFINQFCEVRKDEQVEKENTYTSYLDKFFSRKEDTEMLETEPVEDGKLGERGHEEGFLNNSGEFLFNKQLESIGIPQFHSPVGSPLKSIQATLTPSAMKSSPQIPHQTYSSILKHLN
T2 sequence (P48729 whole entry): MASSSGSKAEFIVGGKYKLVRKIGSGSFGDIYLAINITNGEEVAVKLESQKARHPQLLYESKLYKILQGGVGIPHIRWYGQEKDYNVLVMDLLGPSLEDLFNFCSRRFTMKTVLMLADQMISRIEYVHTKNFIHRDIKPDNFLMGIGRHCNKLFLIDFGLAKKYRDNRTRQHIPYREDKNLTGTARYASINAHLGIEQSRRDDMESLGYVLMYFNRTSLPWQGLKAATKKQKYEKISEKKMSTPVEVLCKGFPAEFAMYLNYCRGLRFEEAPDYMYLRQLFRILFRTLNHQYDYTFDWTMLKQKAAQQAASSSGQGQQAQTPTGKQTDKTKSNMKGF
T6 sequence (Q15759 whole entry): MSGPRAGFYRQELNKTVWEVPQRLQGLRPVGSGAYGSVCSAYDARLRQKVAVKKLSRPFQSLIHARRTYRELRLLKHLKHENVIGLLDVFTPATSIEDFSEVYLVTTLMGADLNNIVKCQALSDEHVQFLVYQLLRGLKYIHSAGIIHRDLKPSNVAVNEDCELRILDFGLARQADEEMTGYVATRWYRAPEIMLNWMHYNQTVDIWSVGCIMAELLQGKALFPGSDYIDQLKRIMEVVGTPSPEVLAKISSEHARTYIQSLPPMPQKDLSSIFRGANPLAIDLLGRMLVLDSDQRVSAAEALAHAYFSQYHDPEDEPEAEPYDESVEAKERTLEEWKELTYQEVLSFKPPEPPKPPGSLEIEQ
T1 sequence (P42336 whole entry H1047L): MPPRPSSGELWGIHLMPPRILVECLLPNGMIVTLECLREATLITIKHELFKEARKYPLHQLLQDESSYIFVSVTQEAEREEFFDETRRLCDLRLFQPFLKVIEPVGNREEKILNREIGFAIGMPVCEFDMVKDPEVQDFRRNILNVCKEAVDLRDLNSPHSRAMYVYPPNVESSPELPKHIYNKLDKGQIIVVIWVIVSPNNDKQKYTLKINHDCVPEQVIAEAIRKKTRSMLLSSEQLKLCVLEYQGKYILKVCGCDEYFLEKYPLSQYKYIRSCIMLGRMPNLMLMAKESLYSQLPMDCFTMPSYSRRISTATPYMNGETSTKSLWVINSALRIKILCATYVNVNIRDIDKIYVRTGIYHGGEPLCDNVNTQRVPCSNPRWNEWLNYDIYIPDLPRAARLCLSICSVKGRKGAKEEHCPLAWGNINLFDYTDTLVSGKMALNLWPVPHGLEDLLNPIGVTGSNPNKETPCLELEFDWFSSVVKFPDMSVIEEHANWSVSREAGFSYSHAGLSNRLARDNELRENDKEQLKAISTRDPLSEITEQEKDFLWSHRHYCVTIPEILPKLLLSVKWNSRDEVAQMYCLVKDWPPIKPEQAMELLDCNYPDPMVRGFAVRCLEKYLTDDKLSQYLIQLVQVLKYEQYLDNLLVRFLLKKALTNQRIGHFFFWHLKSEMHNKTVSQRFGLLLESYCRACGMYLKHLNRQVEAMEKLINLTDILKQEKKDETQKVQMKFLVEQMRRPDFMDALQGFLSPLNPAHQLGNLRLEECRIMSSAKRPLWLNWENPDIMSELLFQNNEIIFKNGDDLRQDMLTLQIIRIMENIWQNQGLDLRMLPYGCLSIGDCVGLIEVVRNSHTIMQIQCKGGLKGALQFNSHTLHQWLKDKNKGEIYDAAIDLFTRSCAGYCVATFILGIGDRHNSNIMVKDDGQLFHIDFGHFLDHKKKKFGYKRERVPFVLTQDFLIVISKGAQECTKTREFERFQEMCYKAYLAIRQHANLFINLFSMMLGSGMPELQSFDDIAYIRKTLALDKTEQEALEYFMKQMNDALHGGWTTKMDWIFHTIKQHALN
T5 sequence (Q02763 23-1124): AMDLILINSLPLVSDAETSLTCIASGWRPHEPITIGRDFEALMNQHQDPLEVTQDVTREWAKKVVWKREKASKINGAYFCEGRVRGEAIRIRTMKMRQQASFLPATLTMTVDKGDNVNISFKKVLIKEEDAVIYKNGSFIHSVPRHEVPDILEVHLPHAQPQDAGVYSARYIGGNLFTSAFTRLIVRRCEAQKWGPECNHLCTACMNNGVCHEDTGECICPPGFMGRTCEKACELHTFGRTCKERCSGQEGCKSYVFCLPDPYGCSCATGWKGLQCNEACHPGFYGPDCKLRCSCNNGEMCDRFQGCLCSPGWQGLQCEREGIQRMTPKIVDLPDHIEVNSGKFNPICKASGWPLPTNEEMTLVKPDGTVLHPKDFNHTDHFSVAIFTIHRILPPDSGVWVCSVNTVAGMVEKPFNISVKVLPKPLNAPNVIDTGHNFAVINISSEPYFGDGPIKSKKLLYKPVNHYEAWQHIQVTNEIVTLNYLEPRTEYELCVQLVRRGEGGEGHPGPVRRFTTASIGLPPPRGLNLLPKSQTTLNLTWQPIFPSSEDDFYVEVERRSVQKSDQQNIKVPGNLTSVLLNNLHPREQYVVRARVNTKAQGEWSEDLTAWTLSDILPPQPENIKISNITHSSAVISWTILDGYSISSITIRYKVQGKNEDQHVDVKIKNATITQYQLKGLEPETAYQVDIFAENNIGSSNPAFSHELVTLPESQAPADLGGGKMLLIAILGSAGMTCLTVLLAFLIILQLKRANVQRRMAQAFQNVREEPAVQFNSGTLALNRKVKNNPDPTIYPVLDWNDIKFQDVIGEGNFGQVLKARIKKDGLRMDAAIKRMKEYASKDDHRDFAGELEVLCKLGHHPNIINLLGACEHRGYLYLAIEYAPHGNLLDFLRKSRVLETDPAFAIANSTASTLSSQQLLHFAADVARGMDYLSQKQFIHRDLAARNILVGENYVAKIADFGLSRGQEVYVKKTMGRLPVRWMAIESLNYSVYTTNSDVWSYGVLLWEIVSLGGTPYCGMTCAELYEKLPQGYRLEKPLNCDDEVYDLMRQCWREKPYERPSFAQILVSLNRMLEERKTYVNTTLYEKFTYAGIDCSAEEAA

## CNc1nc(Nc2ccc(S(=O)(=O)N3CCC(N4CCOCC4)CC3)cc2OC)nc2[nH]cc(Cl)c12 [Compound 12, 5-chloro-N2-(2-methoxy-4-((4-morpholinopiperidin-1-yl)sulfonyl)phenyl)-N4-methyl-7H-pyrrolo[2,3-d]pyrimidine-2,4-diamine]
Panel of 468 kinases [1]
  remaining binding at 1 µM: 56%
Panel of 468 kinases [2]
  remaining binding at 1 µM: 48%
Panel of 468 kinases [3]
  remaining binding at 1 µM: 77%
Panel of 468 kinases [4]
  remaining binding at 1 µM: 100%
Panel of 468 kinases [5]
  remaining binding at 1 µM: 94%
Panel of 468 kinases [6]
  remaining binding at 1 µM: 100%
Panel of 468 kinases [7]
  remaining binding at 1 µM: 100%
Panel of 468 kinases [8]
  remaining binding at 1 µM: 73%
Panel of 468 kinases [9]
  remaining binding at 1 µM: 100%
Panel of 468 kinases [10]
  remaining binding at 1 µM: 100%

## CNc1nc(Nc2ccc(C(=O)N3CCC(N4CCOCC4)CC3)c3c2OCO3)nc2[nH]cc(Cl)c12 [Compound 75, (7-((5-chloro-4-(methylamino)-7H-pyrrolo[2,3-d]pyrimidin-2-yl)amino)benzo[d][1,3]dioxol-4-yl)(4-morpholinopiperidin-1-yl)methanone]
Panel of 468 kinases [1]
  remaining binding at 1 µM: 86%
Panel of 468 kinases [2]
  remaining binding at 1 µM: 32%
Panel of 468 kinases [3]
  remaining binding at 1 µM: 25%
Panel of 468 kinases [4]
  remaining binding at 1 µM: 100%
Panel of 468 kinases [5]
  remaining binding at 1 µM: 94%
Panel of 468 kinases [6]
  remaining binding at 1 µM: 100%
Panel of 468 kinases [7]
  remaining binding at 1 µM: 91%
Panel of 468 kinases [8]
  remaining binding at 1 µM: 41%
Panel of 468 kinases [9]
  remaining binding at 1 µM: 62%
Panel of 468 kinases [10]
  remaining binding at 1 µM: 100%

## CNc1nc(Nc2ccc(P3(=O)CCN(C4CCOCC4)CC3)cc2OC)nc2[nH]cc(Cl)c12 [Compound 77, 4-(4-((5-chloro-4-(methylamino)-7H-pyrrolo[2,3-d]pyrimidin-2-yl)amino)-3-methoxyphenyl)-1-(tetrahydro-2H-pyran-4-yl)-1,4-azaphosphinane 4-oxide]
Panel of 468 kinases [1]
  remaining binding at 1 µM: 61%
Panel of 468 kinases [2]
  remaining binding at 1 µM: 27%
Panel of 468 kinases [3]
  remaining binding at 1 µM: 86%
Panel of 468 kinases [4]
  remaining binding at 1 µM: 100%
Panel of 468 kinases [5]
  remaining binding at 1 µM: 100%
Panel of 468 kinases [6]
  remaining binding at 1 µM: 100%
Panel of 468 kinases [7]
  remaining binding at 1 µM: 99%
Panel of 468 kinases [8]
  remaining binding at 1 µM: 65%
Panel of 468 kinases [9]
  remaining binding at 1 µM: 81%
Panel of 468 kinases [10]
  remaining binding at 1 µM: 100%
